Measured values reported in patent US20060122137A1, “5'-methylpyrimidine and 2'-O-methyl ribonucleotide modified double-stranded ribonucleic acid molecules” (Nastech Pharmaceutical Company Inc., priority 2003, published 2006).

What was measured:
[1] = Thermal melting profiles (Tm) of β-gal siRNA duplexes; type: physicochemical; details: for Avg. Tm from 1st Exp. / Tm: 1st experiment; for Avg. Tm from 2nd Exp.: 2nd (duplicate) experiment; for melts at a temperature of: text summary of Table 7; for melting temperature higher than the wild type (duplex I): versus duplex I
Text: The purpose of this experiment was to determine the effect of incorporating ribothymidines in a double stranded RNA molecule in place of uridines on the melting temperature (TM) of the siRNA molecule. A higher Tm correlates with increased siRNA duplex stability.
To determine the effect of replacing uridines with ribothymidines in the siRNA duplex upon melting temperature, thermal melting profiles were generated for four β-galactosidase (β-gal) siRNA molecules (table 5). These four β-gal siRNA duplexes differ only by the presence or absence of ribothymidines in the siRNA duplex. Where rT is 5-methyluridine.
The stock solutions of single stranded oligonucleotides were prepared by dissolving the selected sequences in 400 μL 10 mM buffer phosphate pH 7.0 containing 0.1 M NaCl and 0.1 mM EDTA and diluted (1 μL to 200 μL) with water and absorbencies (A260) were measured and the contents were calculated. Also the integrity of the oligonucleotides was confirmed by HPLC analysis. To prepare the siRNA duplexes, the single stranded oligonucleotides were mixed and allowed to anneal. The UV absorption (A260) for each siRNA duplex was measured and their value are as follows: I (0.28), II (0.54), III (0.31), and IV (0.45). To test for reproducibility, the melting profile study was done in duplicate.
The thermal melting profiles of the duplexes I, II, III and IV were recorded on Shimadzu UV-VIS 1601 with thermoelectrically temperature controlled through the Peltier device. The temperature was changed at the rate of 0.5° C./minute from 90° C. to 25° C. while the absorption recorded at 260 nm. The reverse experiment is also repeated. The “melting” process is a physical phenomenon. Therefore, the generated profile (90° to 25°) ought to be superimposed on the reverse ([…] to 90°).
Differential curves were used to determine the melting point (Tm) of the duplexes. The shape of the curve defined by the derivative of a curve (versus 1/T) was used to make a robust determination of Tm and other thermodynamic data. Shimadzu TMSPC-8 and its associated software performed the needed calculations.

[2] = tested on: ribonucleases present in rat plasma; assay: Stability of siRNA in rat plasma (PAGE gel, densitometry); type: in vitro ADME; details: for level of degradation on PAGE gel after treatment with plasma: fresh rat plasma, 37° C., time points 0, 30, 60 and 20 min; for Stability Ranking: rat plasma 37° C.
Method: At various time points (0, 30, 60 and 20 min), 50 μ*l of the mixture was taken out and immediately extracted by phenol:chloroform. SiRNAs were dried following precipitation by adding 2.5 volume of isopropanol alcohol and subsequent washing step with 70% ethanol. After dissolving in water and gel loading buffer the samples were analyzed on 20% polyacrylamide gel, containing 7 M urea and visualized by ethidium bromide staining and quantitated by densitometry.
The purpose of this experiment was to determine whether 2′-O-methyl modified ribonucleotides and the substitution of uridines with ribothymidines (5-methyluridine) provide for greater siRNA stability against rat plasma ribonucleases.
At various time points (0, 30, 60 and 20 min), 50 μl of the mixture was taken out and immediately extracted by phenol:chloroform. siRNAs were dried following precipitation by adding 2.5 volume of isopropanol alcohol and subsequent washing step with 70% ethanol. After resuspending in water and gel loading buffer the samples were analyzed gel electrophoresis on a 20% polyacrylamide gel, containing 7 M urea and subsequently visualized by ethidium bromide staining and quantified by densitometry.

interferon response = assay: Interferon response in vitro; type: cell-based
Method: Interferon responsiveness is a potential side-effect of tranfecting cells with siRNAs. Thus, a study was performed in vitro to assess whether various isoforms of the LC20 siRNA would elicit an interferon response. Both unmodified and modified of the 19-mer LC20 siRNA and 21-mer LC20 siRNA were tested.

Substance | Avg. Tm from 1st Exp. [1] [°C] | Avg. Tm from 2nd Exp. [1] [°C] | Tm ([1]; Down profile) [°C] | Tm ([1]; Up profile) [°C] | level of degradation on PAGE gel after treatment with plasma [2] | melts at a temperature of [1] | melting temperature higher than the wild type (duplex I) [1] | interferon response (interferon response) | Stability Ranking ([2]; LC20 siRNAs (Table 3)) | Stability Ranking ([2]; LC13 siRNAs (Table 4))
I (WT): unmodified β-gal siRNA: CUACACAAAUCAGCGAUUU TT / TT GAUGUGUUUAGUCGCUAAA (sense CUACACAAAUCAGCGAUUUTT; antisense TTGAUGUGUUUAGUCGCUAAA; chemistry not fully specified; one strand is listed 3' to 5') [reference compound] | 64.9 | 64.9 | 65.6 | 64.3 | begins to degrade almost immediately | – | – | – | – | –
II: β-gal siRNA, all uracils in both strands changed to ribothymidine (SEQ ID NO:1/2) (chain 1 CNACACAAANCAGCGANNNTT; chain 2 AAANCGCNGANNNGNGNAGTT; RNA at 1, 2, 3, 4, 5, 6, 7, 8, 9, 10, 11, 12, 13, 14, 15, 16, 17, 18, 19, other sugars, backbone and the base at N not given here; all uracils replaced by ribothymidine in both strands) | 72.35 | 72.25 | 72.8 | 71.9 | little to no degradation | about 72.3 °C | 7.4 °C | – | – | –
III: β-gal siRNA, rT incorporated in the anti-sense strand only (SEQ ID NO:5/6) (chain 1 CNACACAAANCAGCGANNNTT; chain 2 AAANCGCNGANNNGNGNAGTT; RNA at 1, 2, 3, 4, 5, 6, 7, 8, 9, 10, 11, 12, 13, 14, 15, 16, 17, 18, 19, other sugars, backbone and the base at N not given here; ribothymidine replaces uracil in antisense strand only) | 72.4 | 69.8 | 72.9 | 71.9 | – | – | approximately 4.9 °C | – | – | –
IV: β-gal siRNA, rT incorporated in the sense strand only (SEQ ID NO:3/4) (chain 1 CTACACAAATCAGCGATTTTT; chain 2 AAAUCGCUGAUUUGUGUAGTT; chain 1: RNA at 2, 10, 17, 18, 19, other sugars and backbone not given here; chain 2: RNA at 4, 8, 11, 12, 13, 15, 17, other sugars and backbone not given here; positions 1-19 ribonucleotides, further chemistry not fully specified) | 67.8 | 67.8 | 67.8 | 67.8 | little to no degradation | 67.8 °C | 2.9 °C | – | – | –
LC20-19mer: No 3′ overhangs and unmodified: 5′-GGGUCGGAACCCAAGCUUA-3′ / 3′-CCCAGCCUUGGGUUCGAAU-p-5′ (siRNA; 5' phosphate on antisense, chemistry not fully specified; one strand is listed 3' to 5') | – | – | – | – | – | – | – | did not elicit an interferon response | 4 | –
LC20-MD23: 5′-GGGT^rCGGAACCCAAGCT^r U^MeOA^MeOdTdT-3′ / 3′-CCCAGCCUUGGGUUCGAAU-p-5′ | – | – | – | – | – | – | – | – | 3 | –
LC20-WT: Unmodified: 5′-GGGUCGGAACCCAAGCUUA dTdT-3′ / 3′-dAdT CCCAGCCUUGGGUUCGAAU-p-5′ | – | – | – | – | – | – | – | did not elicit an interferon response | 4 | 4
